According to patent US20090181467A1, “Method of assessing and of activating the alternative cellular energy (ACE) pathway in the therapy of diseases” (MI Hope Inc. dba Progressive University, priority 2008, published 2009):

Legend:
[1] = system: active skin lesions caused by herpes simplex virus (HSV), herpes zoster virus (HZV) and human papillomavirus (HPV) infections; conditions: cited from earlier work
[2] = system: alternative cellular energy (ACE) pathway; experiment: neutral red dye / UV-A light activation of the ACE pathway in patients; assay type: in vivo, human
From the text: A series of patients have been seen who have a history of recurrent herpes simplex virus (HSV) skin lesions, or a past history of herpes zoster virus (HZV) infections, but with no actual skin lesions present at the time of examination. Another series of patients were recruited from among the patients attending a chiropractic clinic for various pain or impaired mobility related conditions. Under the direction of the inventor, both groups of patients were asked to volunteer for a study on assessing and, if necessary, activating the ACE pathway. Q-tips were used to sample various areas of their skin as well as the mucosal (buccal) surface of their mouths. Urine samples were also collected. The materials were checked for direct fluorescence using a 15W ultraviolet-A light emitting spiral fluorescent light (Halco, ProLume light). The swabs were then touched against other Q-tips that were soaked in an approximately 1 mg/ml solution of neutral red. Several drops of the neutral red solution were added to the urine. The Q-tips and urine were again examined under UV-A light for discernable fluorescence compared to Q-tips exposed only to neutral red. […] Clinic staff similarly tested and gave negative results.
Skin areas of the patients from which fluorescing material were obtained were then wiped with absorbent cloth. These cloth was placed over areas of skin from which the material was collected, stained with neutral red, and exposed to UV-A light from spiral fluorescent bulbs. Under UV illumination, fluorescence developed in areas of skin beneath and adjacent to the stained cloth. The fluorescence lasted for varying periods of time extending in one patient to 3 hours, but generally less than 1 hour. […] Similarly, in most patients there was no discernable fluorescing material when the patients were seen the next day. […] A person commented upon the relief they experienced from a chronically painful shoulder that had resulted from injuries received years earlier in a car accident. Another patient's personality transformed from expressions of anger and hostility to one of laughter and smiles.

Cc1cc2nc3ccc(N(C)C)cc3nc2cc1N.Cl [neutral red]
healing of active skin lesions [1]: successfully used in expediting the healing
sense of wellness ([2]; all patients, at the end of period of UV illumination): much improved sense of wellness
severity of the pain and restricted mobility symptoms ([2]; chiropractic patients, following day): marked reductions
persistence of benefits after a therapy session ([2]; no additional intervention): 2-3 weeks
vitality ([2]; patients with prior history of recurrent HSV infections, immediately after therapy session and next day): improved vitality
